We go through nine compounds from patent US6518243B1, “Desleucyl glycopeptide antibiotics and methods of making same” (Trustees of Princeton University, priority 1999, dated 2003).

Experiment in all cases: Zone of inhibition screen, 96 well agar array format
Common to all, as to type: cell-based
Holding throughout (parameters): scale not given here

One assay deals with S. aureus (ATCC 29213). An outline of the steps: (§1)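 Agar-array screen, 96-well; single compounds vs. strain panel (panel also incl. E. faecium ATCC 49624); antibacterial activity scored.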
Assay [1] deals with S. epidermidis (ATCC 12228). The procedure, abridged: as §1
The next assay has as its system E. faecalis (CL 4877). The note with it: zone of inhibition relative to 1 mg/ml p-chlorobiphenylvancomycin. The procedure, abridged: as §1
Where [2] appears, read: zone of inhibition relative to 1 mg/ml stock solution of p-chlorobiphenylvancomycin.
The mark [3] stands for this setting: zone of inhibition relative to 1 mg/ml p-chlorobiphenylvancomycin.

SMILES strings stand for the structures.

As for `C=CCOC(=O)NCCC(N)C(=O)NC1C(=O)NC(CC(N)=O)C(=O)NC2C(=O)NC3C(=O)NC(C(=O)NC(C(=O)O)c4cc(O)cc(O)c4-c4cc3ccc4O)C(O)c3ccc(c(Cl)c3)Oc3cc2cc(c3OC2OC(CO)C(O)C(O)C2OC2CC(C)(NCc3ccc(-c4ccc(Cl)cc4)cc3)C(O)C(C)O2)Oc2ccc(cc2Cl)C1O` (stereo not drawn) [Compound 93], the “zone score, S. aureus ATCC 29213” value with S. aureus (ATCC 29213) (setting [2]) came out at 2. Further, in assay [1] (setting [2]), the “zone score, S. epidermidis ATCC 12228” value is given as 2.
For `CC(=O)OC(CC(=O)NC1C(=O)NC(CC(N)=O)C(=O)NC2C(=O)NC3C(=O)NC(C(=O)NC(C(=O)O)c4cc(O)cc(O)c4-c4cc3ccc4O)C(O)c3ccc(c(Cl)c3)Oc3cc2cc(c3OC2OC(CO)C(O)C(O)C2OC2CC(C)(NCc3ccc(-c4ccc(Cl)cc4)cc3)C(O)C(C)O2)Oc2ccc(cc2Cl)C1O)C[N+](C)(C)C` (mixture of isomers) [Compound 118], the “zone score, S. aureus ATCC 29213” value in the assay on S. aureus (ATCC 29213) (setting [2]) is reported as 2. Further, the “zone score, S. epidermidis ATCC 12228” value in assay [1] (setting [2]) is on record as 2.
As to `CC1OC(OC2C(Oc3c4cc5cc3Oc3ccc(cc3Cl)C(O)C3NC(=O)C(NC(=O)C5NC(=O)C(CC(N)=O)NC(=O)C(NC(=O)c5ccco5)C(O)c5ccc(c(Cl)c5)O4)c4ccc(O)c(c4)-c4c(O)cc(O)cc4C(C(=O)O)NC3=O)OC(CO)C(O)C2O)CC(C)(NCc2ccc(-c3ccc(Cl)cc3)cc2)C1O` (stereo not drawn) [Compound 240], the “zone score, S. aureus ATCC 29213” value in the assay on S. aureus (ATCC 29213) (setting [3]) was 2. In assay [1] (setting [3]), the “zone score, S. epidermidis ATCC 12228” value was 2.
In the case of `CC1OC(OC2C(Oc3c4cc5cc3Oc3ccc(cc3Cl)C(O)C3NC(=O)C(NC(=O)C5NC(=O)C(CC(N)=O)NC(=O)C(NC(=O)C=NNC(N)=O)C(O)c5ccc(c(Cl)c5)O4)c4ccc(O)c(c4)-c4c(O)cc(O)cc4C(C(=O)O)NC3=O)OC(CO)C(O)C2O)CC(C)(NCc2ccc(-c3ccc(Cl)cc3)cc2)C1O` (stereo not drawn) [Compound 289], the “zone score, S. aureus ATCC 29213” value in the assay with S. aureus (ATCC 29213) (setting [3]) was found to be 2. For the same compound, the “zone score, S. epidermidis ATCC 12228” value in assay [1] (setting [3]) was 2.
Consider `CC1OC(OC2C(Oc3c4cc5cc3Oc3ccc(cc3Cl)C(O)C3NC(=O)C(NC(=O)C5NC(=O)C(CC(N)=O)NC(=O)C(NC(=O)c5cccc(O)n5)C(O)c5ccc(c(Cl)c5)O4)c4ccc(O)c(c4)-c4c(O)cc(O)cc4C(C(=O)O)NC3=O)OC(CO)C(O)C2O)CC(C)(NCc2ccc(-c3ccc(Cl)cc3)cc2)C1O` (stereo not drawn) [Compound 277], for which the “zone score, E. faecalis CL 4877” value with E. faecalis (CL 4877) came to 2. Further, in assay [1] (setting [3]), the “zone score, S. epidermidis ATCC 12228” value is 2.
In the case of `CCOC(=O)C=CC(=O)NC1C(=O)NC(CC(N)=O)C(=O)NC2C(=O)NC3C(=O)NC(C(=O)NC(C(=O)O)c4cc(O)cc(O)c4-c4cc3ccc4O)C(O)c3ccc(c(Cl)c3)Oc3cc2cc(c3OC2OC(CO)C(O)C(O)C2OC2CC(C)(NCc3ccc(-c4ccc(Cl)cc4)cc3)C(O)C(C)O2)Oc2ccc(cc2Cl)C1O` (stereo not drawn) [Compound 288], the “zone score, E. faecalis CL 4877” value in the assay on E. faecalis (CL 4877) is on record as 2. In assay [1] (setting [3]), the “zone score, S. epidermidis ATCC 12228” value worked out at 2.
In the case of `CC1OC(OC2C(Oc3c4cc5cc3Oc3ccc(cc3Cl)C(O)C3NC(=O)C(NC(=O)C5NC(=O)C(CC(N)=O)NC(=O)C(NC(=O)c5ccncc5)C(O)c5ccc(c(Cl)c5)O4)c4ccc(O)c(c4)-c4c(O)cc(O)cc4C(C(=O)O)NC3=O)OC(CO)C(O)C2O)CC(C)(NCc2ccc(-c3ccc(Cl)cc3)cc2)C1O` (stereo not drawn) [Compound 292], the “zone score, E. faecalis CL 4877” value in the assay on E. faecalis (CL 4877) amounted to 2. Besides, the “zone score, S. epidermidis ATCC 12228” value in assay [1] (setting [3]) is listed as 2.
For the compound `CC1OC(OC2C(Oc3c4cc5cc3Oc3ccc(cc3Cl)C(O)C3NC(=O)C(NC(=O)C5NC(=O)C(CC(N)=O)NC(=O)C(NC(=O)Cc5ccsc5)C(O)c5ccc(c(Cl)c5)O4)c4ccc(O)c(c4)-c4c(O)cc(O)cc4C(C(=O)O)NC3=O)OC(CO)C(O)C2O)CC(C)(NCc2ccc(-c3ccc(Cl)cc3)cc2)C1O` (stereo not drawn) [Compound 320], the “zone score, E. faecalis CL 4877” value in the assay on E. faecalis (CL 4877) was found to be 2. Further, the “zone score, S. epidermidis ATCC 12228” value in assay [1] (setting [3]) worked out at 2.
`CC(O)C(=O)NC1C(=O)NC(CC(N)=O)C(=O)NC2C(=O)NC3C(=O)NC(C(=O)NC(C(=O)O)c4cc(O)cc(O)c4-c4cc3ccc4O)C(O)c3ccc(c(Cl)c3)Oc3cc2cc(c3OC2OC(CO)C(O)C(O)C2OC2CC(C)(NCc3ccc(-c4ccc(Cl)cc4)cc3)C(O)C(C)O2)Oc2ccc(cc2Cl)C1O` (stereo not drawn) [Compound 294]: the “zone score, E. faecalis CL 4877” value in the assay on E. faecalis (CL 4877) amounted to 2. Also, the “zone score, S. epidermidis ATCC 12228” value in assay [1] (setting [3]) came to 2.
